Conditions: 101.33 kPa, Liquid, Vibrating tube method

CN(C)CCCN [N,N-dimethyl-1,3-propanediamine]
Conditions	mass density [kg/m3]
278.15 K	830.37
278.65 K	829.93
279.15 K	829.49
279.65 K	829.05
280.15 K	828.61
280.65 K	828.17
281.15 K	827.73
281.65 K	827.29
282.15 K	826.84
282.65 K	826.4
283.15 K	825.96
283.65 K	825.52
284.15 K	825.08
284.65 K	824.64
285.15 K	824.2
285.65 K	823.76
286.15 K	823.32
286.65 K	822.88
287.15 K	822.44
287.65 K	822
288.15 K	821.56
288.65 K	821.12
289.15 K	820.67
289.65 K	820.23
290.15 K	819.79
290.65 K	819.35
291.15 K	818.91
291.65 K	818.47
292.15 K	818.03
292.65 K	817.58
293.15 K	817.14
293.65 K	816.7
294.15 K	816.26
294.65 K	815.82
295.15 K	815.37
295.65 K	814.93
296.15 K	814.49
296.65 K	814.05
297.15 K	813.6
297.65 K	813.16
298.15 K	812.72
298.65 K	812.27
299.15 K	811.83
299.65 K	811.39
300.15 K	810.94
300.65 K	810.5
301.15 K	810.06
301.65 K	809.61
302.15 K	809.17
302.65 K	808.72
303.15 K	808.28
303.65 K	807.84
304.15 K	807.39
304.65 K	806.95
305.15 K	806.5
305.65 K	806.06
306.15 K	805.61
306.65 K	805.17
307.15 K	804.72
307.65 K	804.28
308.15 K	803.83
308.65 K	803.39
309.15 K	802.94
309.65 K	802.5
310.15 K	802.05
310.65 K	801.61
311.15 K	801.16
311.65 K	800.72
312.15 K	800.27
312.65 K	799.82
313.15 K	799.38
313.65 K	798.93
314.15 K	798.48
314.65 K	798.04
315.15 K	797.59
315.65 K	797.14
316.15 K	796.69
316.65 K	796.25
317.15 K	795.8
317.65 K	795.35
318.15 K	794.9
318.65 K	794.45
319.15 K	794.01
319.65 K	793.56
320.15 K	793.11
320.65 K	792.66
321.15 K	792.21
321.65 K	791.76
322.15 K	791.31
322.65 K	790.86
323.15 K	790.41
323.65 K	789.96
324.15 K	789.52
324.65 K	789.06
325.15 K	788.62
325.65 K	788.17
326.15 K	787.72
326.65 K	787.26
327.15 K	786.81
327.65 K	786.36
328.15 K	785.91
328.65 K	785.46
329.15 K	785.01
329.65 K	784.56
330.15 K	784.11
330.65 K	783.65
331.15 K	783.2
331.65 K	782.75
332.15 K	782.3
332.65 K	781.84
333.15 K	781.39
333.65 K	780.94
334.15 K	780.49
334.65 K	780.03
335.15 K	779.58
335.65 K	779.12
336.15 K	778.67
336.65 K	778.22
337.15 K	777.76
337.65 K	777.31
338.15 K	776.85
338.65 K	776.4
339.15 K	775.94
339.65 K	775.49
340.15 K	775.03
340.65 K	774.57
341.15 K	774.11
341.65 K	773.66
342.15 K	773.2
342.65 K	772.74
343.15 K	772.29
343.65 K	771.83
344.15 K	771.37
344.65 K	770.91
345.15 K	770.45
345.65 K	769.99
346.15 K	769.53
346.65 K	769.08
347.15 K	768.62
347.65 K	768.16
348.15 K	767.7
348.65 K	767.24
349.15 K	766.78
349.65 K	766.32
350.15 K	765.86
350.65 K	765.4
351.15 K	764.94
351.65 K	764.48
352.15 K	764.02
352.65 K	763.56
353.15 K	763.1
353.65 K	762.64
354.15 K	762.17
354.65 K	761.71
355.15 K	761.25
355.65 K	760.79
356.15 K	760.33
356.65 K	759.86
357.15 K	759.4
357.65 K	758.94
358.15 K	758.48
358.65 K	758.01
359.15 K	757.55
359.65 K	757.08
360.15 K	756.62
360.65 K	756.15
361.15 K	755.69
361.65 K	755.22
362.15 K	754.75
362.65 K	754.28
363.15 K	753.82

Reference: the NIST ThermoML archive (doi:10.1016/j.tca.2006.04.016)
